Experimental data published in ChEMBL document CHEMBL1201862, “PubChem BioAssay data set” (2004).
Activity calls are given as the source filed them.

Legend:
[1] = microbe, parasite or virus in culture; assay type: functional; conditions: Mycobacterium tuberculosis
[2] = target: Voltage-dependent T-type calcium channel subunit alpha-1H (Homo sapiens, UniProt O95180); assay type: functional;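 further: channel activity triggered by adding a high calcium stimulation buffer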
[3] = target: T1, Corticotropin-releasing factor receptor 2/Corticotropin-releasing factor-binding protein (Homo sapiens, UniProt P24387+Q13324); assay: Dose Response confirmation of uHTS hits for small molecule antagonists of the CRF-binding protein and CRF-R2 receptor complex.; assay type: functional; conditions: read-out: IC50_Mean
T1 sequence (Q13324 whole entry): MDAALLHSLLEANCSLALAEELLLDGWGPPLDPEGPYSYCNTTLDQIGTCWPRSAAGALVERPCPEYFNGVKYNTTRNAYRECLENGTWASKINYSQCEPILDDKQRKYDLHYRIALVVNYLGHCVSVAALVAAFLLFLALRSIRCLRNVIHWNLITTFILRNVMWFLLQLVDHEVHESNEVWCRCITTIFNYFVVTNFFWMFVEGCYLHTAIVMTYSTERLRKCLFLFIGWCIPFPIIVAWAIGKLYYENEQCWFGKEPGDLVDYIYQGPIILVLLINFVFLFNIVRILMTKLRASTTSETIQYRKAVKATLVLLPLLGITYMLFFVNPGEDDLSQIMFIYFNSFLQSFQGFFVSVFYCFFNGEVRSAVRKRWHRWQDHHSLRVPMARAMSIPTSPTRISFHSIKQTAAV
T1 sequence (P24387 whole entry): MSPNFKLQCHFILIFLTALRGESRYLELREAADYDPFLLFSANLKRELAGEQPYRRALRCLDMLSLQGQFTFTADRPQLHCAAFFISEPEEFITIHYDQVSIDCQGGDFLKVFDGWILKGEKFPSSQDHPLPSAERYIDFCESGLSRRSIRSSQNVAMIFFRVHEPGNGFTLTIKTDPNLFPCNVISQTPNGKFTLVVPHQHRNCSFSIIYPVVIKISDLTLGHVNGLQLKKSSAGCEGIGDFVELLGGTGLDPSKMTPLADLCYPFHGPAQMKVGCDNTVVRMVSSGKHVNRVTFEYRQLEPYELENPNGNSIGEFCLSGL

[4] = target: T1, Corticotropin-releasing factor receptor 2/Corticotropin-releasing factor-binding protein; assay: activators of CRF receptor 2 with binding protein – uHTS hits, confirmation (AID 602473); assay type: functional; conditions: read-out: EC50_Mean
Aminopeptidase N = target: T2, Aminopeptidase N (Plasmodium falciparum FcB1/Columbia, UniProt O96935); assay: malaria alanyl aminopeptidase activity blockers – biochemical, fluorogenic H-Leu-NHMec substrate, 1536-well (AID 1445); parameters: species or system Plasmodium falciparum 3D7, 3D7
T2 sequence (O96935 whole entry): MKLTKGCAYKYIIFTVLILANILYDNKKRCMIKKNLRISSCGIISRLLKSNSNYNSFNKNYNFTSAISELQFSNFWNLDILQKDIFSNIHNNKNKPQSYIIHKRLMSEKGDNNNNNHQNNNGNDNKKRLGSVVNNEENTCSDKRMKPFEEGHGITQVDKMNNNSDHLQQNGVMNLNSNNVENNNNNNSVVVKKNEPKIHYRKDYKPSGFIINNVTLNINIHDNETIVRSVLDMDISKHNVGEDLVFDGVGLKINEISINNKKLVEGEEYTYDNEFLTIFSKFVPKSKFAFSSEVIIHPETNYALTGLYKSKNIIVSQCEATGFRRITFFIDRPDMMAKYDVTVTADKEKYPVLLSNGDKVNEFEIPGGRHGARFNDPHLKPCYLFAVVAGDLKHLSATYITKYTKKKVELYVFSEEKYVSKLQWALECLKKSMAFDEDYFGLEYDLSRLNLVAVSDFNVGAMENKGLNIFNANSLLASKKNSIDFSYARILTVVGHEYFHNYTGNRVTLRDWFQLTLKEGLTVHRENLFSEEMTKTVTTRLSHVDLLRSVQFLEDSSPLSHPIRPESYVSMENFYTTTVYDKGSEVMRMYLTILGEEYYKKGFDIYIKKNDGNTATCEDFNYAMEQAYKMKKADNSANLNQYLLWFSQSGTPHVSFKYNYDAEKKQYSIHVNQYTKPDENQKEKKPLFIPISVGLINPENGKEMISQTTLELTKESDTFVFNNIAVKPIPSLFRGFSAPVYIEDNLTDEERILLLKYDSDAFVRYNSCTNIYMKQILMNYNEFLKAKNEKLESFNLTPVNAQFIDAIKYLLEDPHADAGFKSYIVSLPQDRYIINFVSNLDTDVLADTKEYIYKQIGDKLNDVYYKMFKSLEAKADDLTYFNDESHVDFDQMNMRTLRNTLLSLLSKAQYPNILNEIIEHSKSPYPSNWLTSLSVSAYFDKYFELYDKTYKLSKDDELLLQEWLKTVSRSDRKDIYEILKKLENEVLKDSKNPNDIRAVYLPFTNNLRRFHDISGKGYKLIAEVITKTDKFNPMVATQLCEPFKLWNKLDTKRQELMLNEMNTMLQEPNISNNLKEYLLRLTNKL

[5] = target: Peroxisome proliferator-activated receptor gamma/Nuclear receptor coactivator 3 (Homo sapiens, UniProt P37231); assay: TR-FRET dose response biochemical High Throughput Screening assay for agonists of the steroid receptor coactivator 3 (SRC-3) recruitment by the peroxisome proliferator-activated receptor gamma (PPAR gamma): non-selective agonists. [Related pubchem assays: 1301 (Confirmation screen.), 1048 (Primary screen.)]; assay type: functional
[6] = target: T3, Small ubiquitin-related modifier 1 (Homo sapiens, UniProt P63165); assay: SUMO1 protein-protein binding blockers, potency – biochemical, FRET, dose response (AID 624383); assay type: functional; conditions: read-out: IC50_Mean
[7] = target: Peroxisome proliferator-activated receptor gamma/Nuclear receptor coactivator 2 (Homo sapiens, UniProt P37231); assay: (§1) TR-FRET dose response biochemical High Throughput Screening assay for agonists of the steroid receptor coactivator 2 (SRC-2) recruitment by the peroxisome proliferator-activated receptor gamma (PPAR gamma): non-selective agonists. [Related pubchem assays: 1297, 1032 ]; assay type: functional
[8] = target: Peroxisome proliferator-activated receptor gamma/Nuclear receptor coactivator 1 (Homo sapiens, UniProt P37231); assay: as §1, with “1 (SRC-1)” for “2 (SRC-2)”, “assays (depositor defined):AID1300, AID1808, AID504735, AID631]” for “assays: 1297, 1032 ]”; assay type: protein assay
[9] = target: T3, Small ubiquitin-related modifier 1; assay: SUMO1 protein interaction blockers, potency – biochemical, fluorescence polarization, uHTS hits, dose response (AID 624382); assay type: functional; conditions: read-out: IC50_Mean
Coagulation factor XII = target: T4, Coagulation factor XII (Homo sapiens, UniProt P00748); assay type: functional;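 further: activated factor XIIa alpha cleaving a fluorogenic AMC peptide substrate; inhibitor potency from loss of enzyme activity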
T4 sequence (P00748 whole entry): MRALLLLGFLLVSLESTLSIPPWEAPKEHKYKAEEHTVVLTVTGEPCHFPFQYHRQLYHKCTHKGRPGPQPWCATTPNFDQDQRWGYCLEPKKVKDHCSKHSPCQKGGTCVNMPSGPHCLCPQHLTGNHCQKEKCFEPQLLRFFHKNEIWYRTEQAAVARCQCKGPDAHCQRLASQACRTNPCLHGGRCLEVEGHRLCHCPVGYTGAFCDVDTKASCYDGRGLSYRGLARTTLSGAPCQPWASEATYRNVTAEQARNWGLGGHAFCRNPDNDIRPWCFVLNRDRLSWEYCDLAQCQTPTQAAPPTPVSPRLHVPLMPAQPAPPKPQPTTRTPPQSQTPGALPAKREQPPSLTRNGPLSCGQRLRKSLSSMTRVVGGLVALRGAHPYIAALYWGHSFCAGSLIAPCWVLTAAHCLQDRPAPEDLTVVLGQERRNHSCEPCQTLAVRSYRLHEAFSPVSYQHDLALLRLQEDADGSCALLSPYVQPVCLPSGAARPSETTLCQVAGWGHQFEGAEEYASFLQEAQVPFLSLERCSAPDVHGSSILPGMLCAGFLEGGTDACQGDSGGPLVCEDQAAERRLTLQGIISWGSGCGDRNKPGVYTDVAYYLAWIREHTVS

SUMO-activating enzyme = SUMO-activating enzyme (Homo sapiens, UniProt Q9UBT2); assay: blockers of UBC9-mediated SUMO conjugation – biochemical, AlphaScreen, SUMOylation inhibitor project, confirmation (AID 2018); assay type: functional
[10] = THP-1 cell cytotoxicity, dose response, cytotoxicity control for non-replicating M. tuberculosis project (AID 489025); assay type: functional
[11] = NIH3T3 cell viability loss – ATP luminescence, mouse fibroblasts, counter-screen, dose response (AID 2010); assay type: functional, cell-based;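 further: cells exposed to compound for about 90 hours before reading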
cells = assay type: functional
[12] = Trypanosoma cruzi growth suppression in host cells – NIH3T3 host cells, beta-gal luminescence, confirmation (AID 2044); assay type: functional, cell-based;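 further: intracellular parasites grown in NIH/3T3 mouse fibroblasts as host cells; luminescent beta-galactosidase reporter signal from transgenic T. cruzi replicating inside host cells; inhibitors lower the luminescence signal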
[13] = HepG2 cell cytotoxicity, dose response, cytotoxicity control for non-replicating M. tuberculosis project (AID 489018); assay type: functional; conditions: Mycobacterium tuberculosis
Cytochrome P450 2C19 = Cytochrome P450 2C19 (Homo sapiens, UniProt P33261); assay: Cytochrome panel assay with activity outcomes. Panel member name: p450-cyp2c19 Compounds with AC50 equal or less than 10 uM are considered active; assay type: functional; conditions: read-out: AC50
[14] = target: Glucose-6-phosphate 1-dehydrogenase (Homo sapiens, UniProt P11413); assay: inhibition of Homo sapiens G6PD, dose series – biochemical, fluorescence, selectivity assay for P. falciparum G6PD inhibitor project, dose response (AID 504792); assay type: functional
[15] = viability loss of HPDE-C7K cells – cell-based, fluorescence, HTS, primary screen (AID 431); assay type: functional; conditions: Homo sapiens
[16] = HPDE-C7 pancreatic duct cell viability loss – fluorescence, HTS (AID 430); assay type: functional, cell-based; conditions: Homo sapiens
Cytochrome P450 2D6 = Cytochrome P450 2D6 (Homo sapiens, UniProt P10635);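 further: CYP2D6 member of a cytochrome P450 panel assay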
Genome polyprotein = Genome polyprotein (dengue virus type 2, UniProt P29990); assay: flavivirus cap methylation enzyme inhibition – biochemical, confirmation dose response, primary screen (AID 588689); assay type: functional
Protein Tat = target: T5, Protein Tat (Human immunodeficiency virus type 1 group M subtype B (isolate HXB2)(HIV-1), UniProt P04608); assay type: functional;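 further: tat binding to TAR RNA read out by fluorescence polarization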
T5 sequence (P04608 whole entry): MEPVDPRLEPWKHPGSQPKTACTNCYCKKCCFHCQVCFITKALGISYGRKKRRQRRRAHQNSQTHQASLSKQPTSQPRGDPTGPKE

[17] = HIV-1 Vif–A3G interaction blockers – biochemical, TR-FRET, GST-Vif 1-94, biotin-A3G peptide, dose response retest, primary screen (AID 1117319); assay type: functional;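 further: TR-FRET signal of purified GST-Vif binding a biotinylated A3G peptide; inhibitors lower the FRET signal by blocking Vif and A3G binding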

Voltage-dependent T-type calcium channel subunit alpha-1H, sequence (O95180 whole entry): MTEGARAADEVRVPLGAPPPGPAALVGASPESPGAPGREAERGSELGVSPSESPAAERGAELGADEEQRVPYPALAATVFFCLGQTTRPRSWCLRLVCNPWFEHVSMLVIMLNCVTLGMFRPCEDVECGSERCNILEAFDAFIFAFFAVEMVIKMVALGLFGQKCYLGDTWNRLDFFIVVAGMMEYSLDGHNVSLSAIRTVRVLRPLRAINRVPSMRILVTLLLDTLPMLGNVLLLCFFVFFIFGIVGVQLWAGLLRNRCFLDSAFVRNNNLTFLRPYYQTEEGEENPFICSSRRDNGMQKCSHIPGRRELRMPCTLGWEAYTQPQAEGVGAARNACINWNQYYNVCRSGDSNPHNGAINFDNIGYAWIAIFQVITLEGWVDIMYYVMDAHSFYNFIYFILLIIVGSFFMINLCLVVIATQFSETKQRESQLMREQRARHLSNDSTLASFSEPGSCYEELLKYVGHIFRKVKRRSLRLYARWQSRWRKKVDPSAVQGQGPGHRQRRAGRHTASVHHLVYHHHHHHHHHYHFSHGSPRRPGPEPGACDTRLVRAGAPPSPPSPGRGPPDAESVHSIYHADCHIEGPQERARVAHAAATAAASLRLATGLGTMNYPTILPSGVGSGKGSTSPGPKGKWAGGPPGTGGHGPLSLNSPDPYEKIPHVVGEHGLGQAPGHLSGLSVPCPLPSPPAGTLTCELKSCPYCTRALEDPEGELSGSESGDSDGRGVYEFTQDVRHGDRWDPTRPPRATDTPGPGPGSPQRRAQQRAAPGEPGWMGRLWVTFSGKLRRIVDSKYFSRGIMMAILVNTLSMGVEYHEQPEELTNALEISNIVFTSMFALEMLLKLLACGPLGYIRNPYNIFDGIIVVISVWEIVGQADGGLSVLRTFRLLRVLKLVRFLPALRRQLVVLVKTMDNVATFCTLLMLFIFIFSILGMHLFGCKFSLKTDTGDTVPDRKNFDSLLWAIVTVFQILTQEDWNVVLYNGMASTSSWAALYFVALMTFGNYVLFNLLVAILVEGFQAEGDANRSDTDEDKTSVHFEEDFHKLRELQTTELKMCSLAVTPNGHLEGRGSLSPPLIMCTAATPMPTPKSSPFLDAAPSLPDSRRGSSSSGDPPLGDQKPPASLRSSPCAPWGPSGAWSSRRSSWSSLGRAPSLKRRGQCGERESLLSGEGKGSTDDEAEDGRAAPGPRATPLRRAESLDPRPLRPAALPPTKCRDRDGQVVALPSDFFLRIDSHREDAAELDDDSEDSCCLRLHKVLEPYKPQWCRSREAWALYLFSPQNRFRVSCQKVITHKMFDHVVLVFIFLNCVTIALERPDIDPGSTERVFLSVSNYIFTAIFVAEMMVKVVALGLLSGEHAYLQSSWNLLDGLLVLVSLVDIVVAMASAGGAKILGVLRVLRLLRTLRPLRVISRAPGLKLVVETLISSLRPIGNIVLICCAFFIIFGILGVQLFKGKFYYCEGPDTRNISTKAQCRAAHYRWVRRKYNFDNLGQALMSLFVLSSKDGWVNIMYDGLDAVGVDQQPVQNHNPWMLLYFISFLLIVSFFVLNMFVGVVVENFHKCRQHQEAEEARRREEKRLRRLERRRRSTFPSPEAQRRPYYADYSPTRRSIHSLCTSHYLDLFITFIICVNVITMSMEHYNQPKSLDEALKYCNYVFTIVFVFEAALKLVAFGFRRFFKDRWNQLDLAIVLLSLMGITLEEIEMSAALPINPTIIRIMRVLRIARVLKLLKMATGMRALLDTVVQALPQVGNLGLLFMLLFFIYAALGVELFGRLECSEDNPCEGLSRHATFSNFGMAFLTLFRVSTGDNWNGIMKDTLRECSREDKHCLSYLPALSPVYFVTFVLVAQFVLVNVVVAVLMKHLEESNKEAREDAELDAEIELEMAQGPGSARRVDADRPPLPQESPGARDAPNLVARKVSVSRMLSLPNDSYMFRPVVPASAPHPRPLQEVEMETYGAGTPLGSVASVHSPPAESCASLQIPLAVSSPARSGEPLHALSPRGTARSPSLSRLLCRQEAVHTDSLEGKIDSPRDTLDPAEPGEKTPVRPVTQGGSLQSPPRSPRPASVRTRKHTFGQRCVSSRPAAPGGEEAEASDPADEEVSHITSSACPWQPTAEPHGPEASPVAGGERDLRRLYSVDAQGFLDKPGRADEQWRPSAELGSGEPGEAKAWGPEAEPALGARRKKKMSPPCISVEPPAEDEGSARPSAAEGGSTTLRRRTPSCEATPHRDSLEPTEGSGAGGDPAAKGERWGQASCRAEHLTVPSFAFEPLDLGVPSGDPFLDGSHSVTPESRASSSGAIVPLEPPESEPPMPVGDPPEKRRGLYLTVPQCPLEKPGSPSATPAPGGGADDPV
Peroxisome proliferator-activated receptor gamma/Nuclear receptor coactivator 1, sequence (P37231 whole entry): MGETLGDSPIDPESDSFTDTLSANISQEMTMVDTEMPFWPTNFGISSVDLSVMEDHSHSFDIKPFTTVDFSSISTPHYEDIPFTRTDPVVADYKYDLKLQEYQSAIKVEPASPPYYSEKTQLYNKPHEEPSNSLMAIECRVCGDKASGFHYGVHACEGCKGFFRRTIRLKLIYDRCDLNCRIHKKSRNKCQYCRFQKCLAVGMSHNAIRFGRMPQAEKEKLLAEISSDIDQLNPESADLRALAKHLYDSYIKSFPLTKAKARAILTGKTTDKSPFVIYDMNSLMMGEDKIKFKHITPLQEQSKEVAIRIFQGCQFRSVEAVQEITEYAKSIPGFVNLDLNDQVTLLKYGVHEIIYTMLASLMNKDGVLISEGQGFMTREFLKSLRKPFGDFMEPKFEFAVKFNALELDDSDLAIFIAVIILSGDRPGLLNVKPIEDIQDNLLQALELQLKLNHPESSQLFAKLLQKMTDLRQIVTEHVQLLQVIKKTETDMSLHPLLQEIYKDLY
Peroxisome proliferator-activated receptor gamma/Nuclear receptor coactivator 1, sequence (Q15788 whole entry, further chain): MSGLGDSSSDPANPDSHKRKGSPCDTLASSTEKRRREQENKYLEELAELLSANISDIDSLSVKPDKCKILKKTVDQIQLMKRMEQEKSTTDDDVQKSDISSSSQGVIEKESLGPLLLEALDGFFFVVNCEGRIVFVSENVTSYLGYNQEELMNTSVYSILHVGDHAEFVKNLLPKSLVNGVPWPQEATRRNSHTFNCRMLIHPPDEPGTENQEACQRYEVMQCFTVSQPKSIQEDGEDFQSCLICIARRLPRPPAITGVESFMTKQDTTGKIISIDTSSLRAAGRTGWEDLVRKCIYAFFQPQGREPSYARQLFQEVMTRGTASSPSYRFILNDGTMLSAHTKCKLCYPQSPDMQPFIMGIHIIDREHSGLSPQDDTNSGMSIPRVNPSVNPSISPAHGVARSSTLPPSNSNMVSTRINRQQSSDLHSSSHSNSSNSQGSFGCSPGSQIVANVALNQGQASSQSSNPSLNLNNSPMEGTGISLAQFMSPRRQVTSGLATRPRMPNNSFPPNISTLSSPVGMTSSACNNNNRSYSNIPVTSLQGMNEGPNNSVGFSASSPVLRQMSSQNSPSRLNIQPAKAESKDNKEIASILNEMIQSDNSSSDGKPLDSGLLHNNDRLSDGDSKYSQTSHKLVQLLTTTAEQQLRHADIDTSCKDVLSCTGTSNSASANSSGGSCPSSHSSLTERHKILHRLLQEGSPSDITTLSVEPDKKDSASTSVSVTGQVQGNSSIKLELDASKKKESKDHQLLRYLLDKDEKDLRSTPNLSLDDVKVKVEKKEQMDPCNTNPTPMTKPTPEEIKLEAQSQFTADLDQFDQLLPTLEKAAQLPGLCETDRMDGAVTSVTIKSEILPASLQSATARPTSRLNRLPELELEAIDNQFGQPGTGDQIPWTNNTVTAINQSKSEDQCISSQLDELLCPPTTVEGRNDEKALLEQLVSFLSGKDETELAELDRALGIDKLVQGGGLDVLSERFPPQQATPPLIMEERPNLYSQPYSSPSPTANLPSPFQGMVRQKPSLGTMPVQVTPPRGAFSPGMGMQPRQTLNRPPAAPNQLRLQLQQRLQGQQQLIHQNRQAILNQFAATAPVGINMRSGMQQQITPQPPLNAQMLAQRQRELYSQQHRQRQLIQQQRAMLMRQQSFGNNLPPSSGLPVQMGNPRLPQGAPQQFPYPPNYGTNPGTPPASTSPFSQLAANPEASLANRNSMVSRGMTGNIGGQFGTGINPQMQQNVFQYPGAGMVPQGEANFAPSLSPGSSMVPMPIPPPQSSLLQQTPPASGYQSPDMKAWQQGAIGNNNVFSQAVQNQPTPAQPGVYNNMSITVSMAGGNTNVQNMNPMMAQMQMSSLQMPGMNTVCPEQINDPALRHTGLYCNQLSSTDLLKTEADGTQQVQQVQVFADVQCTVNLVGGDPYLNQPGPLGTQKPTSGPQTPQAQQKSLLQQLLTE
T3 sequence (P63165 whole entry): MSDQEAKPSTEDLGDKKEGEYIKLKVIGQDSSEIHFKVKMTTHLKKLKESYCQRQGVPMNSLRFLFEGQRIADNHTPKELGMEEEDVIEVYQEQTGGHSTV
Cytochrome P450 2C19, sequence (P33261 whole entry): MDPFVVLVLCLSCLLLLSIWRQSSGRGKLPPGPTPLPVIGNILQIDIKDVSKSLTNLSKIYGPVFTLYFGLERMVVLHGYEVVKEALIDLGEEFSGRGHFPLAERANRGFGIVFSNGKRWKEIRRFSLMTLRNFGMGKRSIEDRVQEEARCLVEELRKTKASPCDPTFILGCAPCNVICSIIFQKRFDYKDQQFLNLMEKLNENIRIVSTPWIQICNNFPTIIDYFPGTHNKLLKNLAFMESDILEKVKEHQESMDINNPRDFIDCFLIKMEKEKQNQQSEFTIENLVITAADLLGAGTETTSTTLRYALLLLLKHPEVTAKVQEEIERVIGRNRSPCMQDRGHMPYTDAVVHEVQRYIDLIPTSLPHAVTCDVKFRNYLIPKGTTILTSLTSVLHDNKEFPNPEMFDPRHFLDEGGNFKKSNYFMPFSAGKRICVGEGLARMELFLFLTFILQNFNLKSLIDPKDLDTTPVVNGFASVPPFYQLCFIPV

Cc1cc2nc(C3CCN(CC4COc5ccccc5O4)CC3)[nH]c2cc1C (configuration not stated)
CC50 [1]: 30.9 µM (active) | EC50 [2]: 4.9 µM (active)

CC(C)(C)n1nnnc1C(c1ccc(Cl)cc1)N(Cc1cccnc1)Cc1ccco1 (configuration not stated)
IC50 [3]: > 47.1 µM (inactive) | EC50 [2]: 3.31 µM (active) | EC50 [4]: > 53 µM (inactive)

CCNS(=O)(=O)c1ccc(CCC(=O)NCc2ccc(C)cc2)cc1
IC50 (Aminopeptidase N): 21.8 µM (active)

COc1cc(/C=N/NC(=O)c2cccnc2)ccc1OCC(=O)Nc1ccc(C)cc1
IC50 (Aminopeptidase N): 47.8 µM (active)

COc1ccc(-c2nnc(Nc3ccc(S(=O)(=O)Nc4nccs4)cc3)c3ccccc23)cc1
IC50 [3]: > 47.1 µM (inactive) | EC50 [5]: > 79.4 µM (not active) | IC50 [6]: 18.2 µM (active) | EC50 [7]: 9.18 µM (active) | EC50 [8]: 14.9 µM (inactive) | EC50 [4]: > 53 µM (inactive) | IC50 [9]: > 66.6 µM (inactive)

COc1cc(OC)cc(C(=O)N2CCN(Cc3ccccc3C(F)(F)F)CC2)c1
IC50 (Coagulation factor XII): > 50 µM (inactive)

CCn1c(=O)cc(SCC(=O)NCc2ccco2)c2ccccc21
EC50 [5]: > 79.4 µM (not active) | EC50 [7]: > 79.4 µM (not active) | EC50 [8]: > 79.4 µM (inactive)

O=C(Nc1ccccc1O)c1cc(S(=O)(=O)N2CCOCC2)c(Cl)cc1Cl
IC50 (SUMO-activating enzyme): > 100 µM (inactive)

COC(=O)c1sc(NC(=O)c2ccc([N+](=O)[O-])o2)c(C#N)c1C
CC50 [10]: 18.8 µM (active) | EC50 [11]: > 60 µM (not active) | IC50 (cells): 6.19 µM (active) | EC50 [12]: 0.255 µM (active) | CC50 [13]: > 20 µM (active)

Cc1cccc(NC(=O)c2cc(N3C(=O)CCC3=O)ccc2Cl)n1
AC50 (Cytochrome P450 2C19): 28.2 µM (inconclusive) | IC50 (Coagulation factor XII): > 50 µM (inactive)

NCCNC(=O)Cc1cccc(NC(=O)Cc2ccc(Nc3ncnc4c3ncn4[C@@H]3O[C@H](CO)[C@@H](O)[C@H]3O)cc2)c1
IC50 (Aminopeptidase N): 53.7 µM (active)

O=C(CSc1ncnc2c1oc1ccccc12)Nc1cccc(Cl)c1
EC50 [5]: > 79.4 µM (not active) | EC50 [7]: 23.7 µM (not active) | EC50 [8]: 37.1 µM (inactive)

COc1c2ccoc2c(OCC=C(C)C)c2oc(=O)ccc12 [PHELLOPTERIN]
IC50 [14]: > 80 µM (inactive)

Cc1nc2c(C(=O)NCc3ccc4c(c3)OCO4)cnn2c(O)c1Cc1ccccc1F
EC50 [15]: 11.6 µM (active) | EC50 [16]: 9.68 µM (active) | EC50 [2]: 7.38 µM (active) | AC50 (Cytochrome P450 2D6): 25.1 µM (inconclusive)

Cc1cccc(OCC(=O)Nc2nnc(-c3ccco3)s2)c1
EC50 [5]: > 79.4 µM (not active) | EC50 [7]: > 26.5 µM (not active) | EC50 [8]: > 26.5 µM (inactive)

O=C(O)Cn1cc(C=C2C(=O)NC(=O)NC2=O)c2ccccc21
IC50 (Genome polyprotein): > 100 µM (active)

c1cncc(-c2csc(NCc3ccco3)n2)c1
IC50 (Protein Tat): > 100 µM (active) | IC50 (Coagulation factor XII): > 50 µM (inactive) | IC50 [17]: > 100 µM (active)
